The source of these data is US7364842B2, “Methods of identifying modulators of human retrovirus replication” (IRM, LLC, priority 2003, dated 2008).

The test system of one data set is HIV-1. The settings on record: siRNA-transfected Magi cells; versus Scramble siRNA control. How it is done: Magi cells were transiently transfected with an siRNA targeting Pbx1 or Pin1. A Scramble siRNA was used as a negative control. Reverse transcriptase activity was then assessed.
Magi indicator cells were also used to determine the effect of HMG I proteins on the transcription of retroviral genes. Magi cells were transiently transfected with an siRNA targeting HMG I-C or HMG I/Y. A Scramble siRNA was used as a negative control. […] For the western blot analysis, cells were transiently transfected with the siRNAs targeting HMGI/Y (FIG. 9), HMG I-C (FIG. 10) or firefly luciferase (control siRNA). Magi cells were lysed 48-60 hours after transfection and analyzed by western blot using antibodies against HMGI/Y, HMG I-C or γ-tubulin proteins. The γ-tubulin levels were used as the loading controls.

In data set [1] the test system is HIV-1 LTR-driven β-gal reporter in Magi cells. Description: Magi indicator cell β-galactosidase assay (HIV LTR-mediated gene expression). The format is cell-based. The conditions noted are these: Magi cells transiently transfected with siRNA; versus Scramble siRNA control. An excerpt: (§1) The ability of Pbx 1 to mediate transcription of genes of retroviruses that infect human cells was investigated using Magi indicator cells (e.g., Kimpton and Emerman, J. Virol. 66: 2232-2239, 1992). The MAGI (Multinuclear Activation of a Galactosidase Indicator) cell line was derived from parental HeLa cells by introducing genes for CD4 and an HIV-1 LTR-driven β-gal reporter with an amphotropic retrovirus vector. This cell line exploits the ability of HIV-1 tat to transactivate the expression of a β-galactosidase reporter gene driven by the HIV-LTR. […] The β-galactosidase activity was then assessed in the cultures. […] Western blot analysis of Pbx1 siRNA-transfected Magi cells confirmed that levels of Pbx1 protein were reduced in comparison to control cells transfected with firefly luciferase siRNA, which served as a negative control (FIG. 2). […] The γ-tubulin was used as the loading control.

A further data set deals with Pbx1 protein. Description: Western blot of Pbx1 protein in siRNA-transfected Magi cells. It is filed as cell-based. The settings on record: Magi cells lysed 48-60 hours after transfection; versus firefly luciferase siRNA control.
Source text: as §1
Background: A western blot detects proteins with antibodies after separation by electrophoresis.

The test system of data set [2] is Moloney murine leukemia virus (MLV). The conditions noted are these: background statement; cited from earlier work.
The test system of a further data set is HMG I-C protein. In words: Western blot of HMG I-C protein in siRNA-treated Magi cells. The format is cell-based. The settings on record: Magi cells lysed 48-60 hours after transfection; versus luciferase siRNA control.
A further data set deals with recombinant HIV. In words: Recombinant HIV assay, luciferase reporter in 293T cells. The format is cell-based, HIV-1. The conditions noted are these: 293T cells transfected with siRNA, infected with recombinant HIV after 24 hours, measured after 48 hrs; versus Scramble siRNA. How it is done: A recombinant HIV assay was used to assess the role of HMG I proteins in HIV replication. Pseudotyped recombinant HIV particles were generated by transient transfection of 293T cells using a three-plasmid expression system (FIGS. 5a and 5b).
A Scramble siRNA was used as a negative control After 24 hours, the transfected cells were infected with recombinant HIV. After 48 hrs, luciferase activity was measured.

The next data set has as its system HMG I/Y protein. Description: Western blot of HMG I/Y protein in siRNA-treated Magi cells. The settings on record: Magi cells lysed 48-60 hours after transfection; versus luciferase siRNA control. The format is cell-based.
Data set [3] relates to human immunodeficiency virus (HIV). The conditions noted are these: Chao et al., J. Biol. Chem. 2000; cited from earlier work.

For the compound “AAGCCUGCCUUGUUUAAUGUG (chemistry not given here) [Pbx1 siRNA]”, in the data set on HIV-1, the “activity of HIV reverse transcriptase” value is “greatly reduced”. The β-gal activity result in data set [1] was “reduced”. For the same compound, in the data set on Pbx1 protein, the “levels of Pbx1 protein” value is listed as “reduced”.
Turning to methoxy-roscovitine, the MLV transcription events result in data set [2] is on record as “block”.
As to `CC(C)[C@H](CO)Nc1nc(Nc2cccc(Cl)c2)c2ncn(C(C)C)c2n1` [purvalanol A], in data set [2], the MLV transcription events result is listed as “block”.
As to “AAGCAGCUCAAAAGAAAGCAG (chemistry not given here) [HMG I-C]”, the “levels of HMG I-C protein” value in the data set on HMG I-C protein is “reduced”. Further, in the data set on HIV-1, the “activity of HIV reverse transcriptase” value is “reduced”. The luciferase reporter activity result in the data set with recombinant HIV is reported as “reduced”. In data set [1], the β-gal activity result is “inhibited”.
Regarding “AAGUGCCAACACCUAAGAGAC (chemistry not given here) [HMG I/Y]”, the “activity of HIV reverse transcriptase” value in the data set with HIV-1 is reported as “reduced”. Besides, the “levels of HMG I/Y protein” value in the data set with HMG I/Y protein is recorded as “reduced”. Also, the β-gal activity entry in data set [1] was “inhibited”.
Regarding `CN1CC[C@H](c2c(O)cc(O)c3c(=O)cc(-c4ccccc4Cl)oc23)[C@H](O)C1` [flavopiridol], the MLV transcription events entry in data set [2] is “block”. The anti-HIV activity result in data set [3] is listed as “very potent”.
